The target of experiment [1] is T1, adenosine (purine) receptors (Cavia porcellus, UniProt P47745).
T1 construct: Ilea were removed from sacrificed guinea pigs and placed in organ baths; from tissue; host or cells: guinea pig ileum
T1 sequence (P47745 1-326): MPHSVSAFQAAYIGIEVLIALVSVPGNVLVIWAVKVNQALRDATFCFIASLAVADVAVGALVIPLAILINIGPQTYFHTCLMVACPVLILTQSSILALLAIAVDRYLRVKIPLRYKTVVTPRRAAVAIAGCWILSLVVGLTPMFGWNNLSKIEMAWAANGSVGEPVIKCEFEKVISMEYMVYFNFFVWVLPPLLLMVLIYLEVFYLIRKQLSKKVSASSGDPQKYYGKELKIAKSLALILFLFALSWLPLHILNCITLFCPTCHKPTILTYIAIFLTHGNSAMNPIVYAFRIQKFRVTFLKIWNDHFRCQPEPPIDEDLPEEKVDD
The experiment is described as follows: guinea pig ileum twitch test, antagonism of purine receptors (agonist 2-chloroadenosine). The note with it: slope in parentheses after pA2. As for the experimental part:
Accordingly, a representative number of compounds of the present invention were tested for their ability to antagonise the purine receptors using the guinea pig ileum test system.
Ilea were removed from sacrificed guinea pigs and placed in organ baths containing oxygenated Krebs-Henseleit buffer. After equilibration, the ilea were stimulated to contract (twitch contraction) using an electrical field-stimulus of 0.1 Hz, 0.5 ms duration and maximal voltage. Under these conditions, the twitch contraction results from the release of acetylcholine.
Concentration response curves to the purine agonist, 2-chloroadenosine, were determined first in the absence and then in the presence of multiple concentrations of the compounds of the invention. One concentration of each compound was used per tissue. Quantification of purine receptor antagonism was accomplished using the Schild regression technique, i.e. plots of log (dose-ratio-1) vs log compound concentration, and the pA2 determined by regression of the data points to the x-intercept, where log (dose-ratio-1) is zero.

Experiment [2] concerns HIV. The experiment is described as follows: anti-HIV activity, in-vitro assay system. It is filed as cell-based. More on the design: key to ED50 (expressed as active (+) or very active (++)): +: active; ++: very active. The note with it: for EC50: Human immunodeficiency virus 1, 50% effective dose estimated, read-out: μM ED50; for EC50 / ED50 (expressed as active (+) or very active (++)): in vitro anti-HIV; for ED50 (expressed as active (+) or very active (++)): grade. The procedure:
The anti-HIV activity of various compounds was tested using an in-vitro assay system as described in H Mitsuya et al; (Proc Natl. Acad.Sci. USA Vol 82 pp 7096-7100, October 1985)

The structures appear in SMILES notation.

Regarding `CCCn1c(=O)c2nc(-c3ccc(/C=C/C(=O)O)cc3)[nH]c2n(CCC)c1=O` [Example 6, (E)-4-(1,2,3,6-tetrahydro-2,6-dioxo-1,3-dipropyl-9H-purin-8-yl)cinnamic acid], in experiment [1], the “slope (Schild regression)” value was 0.9.
On to `CCCn1c(=O)n(C)c(=O)c2nc(-c3ccc(/C=C/C(=O)O)cc3)[nH]c21` [Example 11, (E)-4-(1,2,3,6-tetrahydro-1-methyl-2,6-dioxo-3-propyl-9H-purin-8-yl)cinnamic acid], for which the “slope (Schild regression)” value in experiment [1] was determined as 1.0.
For the compound `CCCCn1c(=O)c2nc(-c3ccc(/C=C/C(=O)O)cc3)[nH]c2n(CCCC)c1=O` [Example 14, (E)-4-(1,3-dibutyl-1,2,3,6-tetrahydro-2,6-dioxo-9H-purin-8-yl)cinnamic acid], the “slope (Schild regression)” value in experiment [1] was 1.0. For the same compound, in experiment [2], the EC50 is 30 µM and the “ED50 (expressed as active (+) or very active (++))” value (“ED50” for short) was “+”.
As to `O=C(O)/C=C/c1ccc(-c2nc3c(=O)n(Cc4ccccc4)c(=O)n(Cc4ccccc4)c3[nH]2)cc1` [Example 15, (E)-4-(1,3-dibenzyl-1,2,3,6-tetrahydro-2,6-dioxo-9H-purin-8yl) cinnamic acid], the “slope (Schild regression)” value in experiment [1] was 0.9. Also, in experiment [2], the EC50 is 3 to 15 µM and the “ED50” value was “++”. The “antiviral / anti-retroviral activity, in words” value in experiment [2] (against AIDV / retroviruses, statement in words, listed as compound 14) was “especially potent activity against AIDV”.
Regarding `Cn1c(=O)c2nc(-c3ccc(/C=C/C(=O)O)cc3)[nH]c2n(Cc2ccccc2)c1=O` [Example 18, (E)-4-(3-benzyl-1,2,3,6-tetrahydro-1-methyl-2,6-dioxo-9H-purin-8yl) cinnamic acid], the “slope (Schild regression)” value in experiment [1] came to 0.9.
For the compound `CC(C)Cn1c(=O)c2nc(-c3ccc(/C=C/C(=O)O)cc3)[nH]c2n(CC(C)C)c1=O` [Example 19, (E)-4-(1,2,3,6-tetrahydro-1,3-diisobutyl-2,6-dioxo-9H-purin-8-yl)cinnamic acid], the “slope (Schild regression)” value in experiment [1] stood at 1.0.
Turning to `CCCn1c(=O)n(Cc2ccccc2)c(=O)c2nc(-c3ccc(/C=C/C(=O)O)cc3)[nH]c21` [Example 25, (E)-4-(1-Benzyl-1,2,3,6-tetrahydro-2,6-dioxo-3-propyl-9H-purin-8-yl)cinnamic acid], in experiment [2], the EC50 is 30 µM and the “ED50” value is recorded as “+”.
As for `CCCn1c(=O)c2nc(-c3ccc(/C=C/C(=O)O)cc3)[nH]c2n(Cc2ccccc2)c1=O` [Example 26, (E)-4-(3-Benzyl-1,2,3,6-tetrahydro-2,6dioxo-1-propyl-9H-purin-8-yl)cinnamicacid], in experiment [2], the EC50 is 30 µM and the “ED50” value is “+”.
For `Cn1c(=O)c2[nH]cnc2n(C)c1=O` [THEOPHYLLINE, 1,3-dimethylxanthine, reference compound], the “slope (Schild regression)” value in experiment [1] is given as 1.1.

The values are drawn from patent US5015647A, “Method for treating viral infections” (Burroughs Wellcome Co., priority 1989, dated 1991).
